Laboratory results as given in paper PMC3842960, “Natural Stilbenoids Isolated from Grapevine Exhibiting Inhibitory Effects against HIV-1 Integrase and Eukaryote MOS1 Transposase In Vitro Activities” (PLoS ONE, 2013).

Legend:
[1] = test system: VSV-G pseudotyped lentiviruses; assay type: cell-based
[2] = test system: VSV-G pseudotyped lentiviruses; assay type: cell-based; details: 10 µM
MOS1 = molecular target: T1, MOS1 (Drosophila mauritiana, UniProt Q7JQ07); assay: MOS1 in vitro activities, overall statements of the discussion; assay type: biochemical, D. mauritiana; details: in vitro assays of MOS1 activities; discussion
T1 construct: involving the full-length Mos1 transposase (MOS1) was recently solved; made in house
Experimental: (§1) In vitro transposition reactions were performed using pBC-3T3 as both the donor DNA and the target, as previously described. Briefly, the basic transposition reaction mixtures contained 10 mM Tris-HCl (pH 9), 50 mM NaCl, 20 mM MgCl2, 0.5 mM EDTA, 5% glycerol, 5 ng/ml BSA, 600 ng pBC-3T3, and 80 nM purified MBP-MOS1 (added last) in a volume of 20 µl. Inhibitors (25 or 10 µM, as specified) or DMSO (2%) were added to the reaction mixtures before the transposase. The reactions were allowed to proceed for 30 min at 30°C. After phenol-chloroform extraction and ethanol precipitation, 10% of the reaction mixture was transformed in electro-competent JM109 E. coli (2 mm cuvette, 1.5 kV in a MicroPulser™BioRad). Appropriate dilutions of each reaction mixture were plated on LB-tetracycline (12.5 µg/ml) agar and LB-chloramphenicol (80 µg/ml) agar to score the transposition rate. The transposition rate was the number of Tet^R colonies divided by the number of Chloram^R plus Tet^R colonies. Each condition was done at least three times in independent experiments.
(§2) Basic excision reaction mixtures contained 10 mM Tris-HCl (pH 9), 50 mM NaCl, 20 mM MgCl2, 0.5 mM EDTA, 0.5 mM DTT, 100 ng BSA, 600 ng of super-coiled pBC-3T3, and 80 nM MBP-MOS1 (added last) in a volume of 20 µl. Molecules (25 or 10 µM, as specified) or DMSO (2%) were added to the reaction mixtures before the transposase. The reactions were allowed to proceed at 30°C for 30 min before 2 µl of stop solution (loading buffer) were added. The reaction mixtures were then incubated at 65°C for 10 min. Each reaction was analysed by overnight electrophoresis at 2.7 V/cm on a TAE-buffered 1% agarose gel with ethidium bromide (0.3 mg/ml). After electrophoresis, the gel was photographed on a transilluminator. ImageGauge 4.22 software (Fujifilm) was used to quantify the bands. Each condition was tested at least twice.
These assays were performed using pre-cleaved 3′ITRs (PC-ITR), i.e. ITRs in the configuration expected after excision. Double-strand ITRs were obtained by annealing equimolar amounts of 70-NTS-PN (5′[…]3′) and 70-TS-PC (5′[…]3′) single-strand oligonucleotides. Prior to annealing, the transferred strand (70-TS-PC) was 5′-end labelled using T4 polynucleotide kinase (Promega) and γ-^32P-ATP following the manufacturer's instructions. Oligonucleotides were provided by Eurofins MWG Biotech (Germany) or Eurogentec (Belgium). Reaction mixtures containing 10 mM Tris-HCl (pH 9), 50 mM NaCl, 1 mM DTT, 5% glycerol, 100 ng BSA, 100 nM of labelled PC-ITR and 100 nM MBP-MOS1 in a final volume of 20 µl were incubated at 30°C for 30 min. The pBC plasmid (which contained the cat gene, a hot-spot for Mos1 insertion) was then added to 30 ng/µL along with 5 mM MgCl2. Molecules (25 or 10 µM, as specified) or DMSO (2%) were added to the reaction mixtures along with the target DNA to estimate their effect on integration. Reactions were carried out for 3 hours at 30°C. 0.1 mg/ml proteinase K and 0.1% SDS were added to stop the reaction. DNA products were purified by phenol-chloroform extraction and ethanol precipitated using standard techniques. DNA products were resuspended in DNA loading buffer, then separated onto a 1% agarose gel in 1X TAE (Tris Acetate EDTA) buffer. The gel was dried onto a nitrocellulose membrane (Hybond N+, GE Healthcare), scanned using a Storm, and analysed with ImageQuant software. Signals were quantified using ImageQuant software. Efficiency of integration was calculated as the intensity of the integration signal divided by the intensity of free target signal plus integration signal. Each condition was tested at least twice.
All molecules were also tested in in vitro assays reproducing integration and excision reactions catalysed by MOS1. […] In contrast, E-resveratrol and E-ε-viniferin glucoside, which act more specifically on HIV-1 3′processing reaction, and E-piceid and E-pterostilbene, which is more efficient on the integration reaction, were not active on MOS1.

HIV-1 IN [3] = molecular target: T2, HIV-1 IN (Human immunodeficiency virus type 1 group M subtype B, UniProt P04585); assay: HIV-1 IN in vitro concerted integration assay (processed or unprocessed donor DNA); details: for differential effect between reactions: strand transfer / processed donor versus 3′processing / unprocessed donor: comparison of concerted integration and 3′processing results; for inhibitory efficiency compared with raltegravir: concerted integration; for inhibitory efficiency compared with raltegravir / inhibition of concerted integration from processed and unprocessed donor: increasing concentrations
HIV-1 IN [4] = molecular target: T2, HIV-1 IN; assay: HIV-1 IN 3′processing assay; assay type: biochemical; details: 600 nM IN; increasing concentrations
Mos1 transposase (MOS1) [5] = molecular target: T3, Mos1 transposase (MOS1) (Drosophila mauritiana, UniProt Q7JQ07); assay: MOS1 in vitro transposition assay (genetic hop experiment); assay type: biochemical, D. mauritiana
T3 construct: involving the full-length Mos1 transposase (MOS1) was recently solved; made in house
Experimental: The wild type Mos1 transposase (MOS1: 345 amino acids) was produced and purified as a fusion protein linked to the maltose-binding protein by using the pMal-c2 system (New England Biolabs) and following the manufacturer's instructions.
as §1
To identify the natural stilbenes active on MOS1, the 17 molecules were tested using an in vitro genetic “hop” experiment, which is the most sensitive test available as yet. Purified MOS1 was incubated with the pBC-3T3 plasmid, which was used both as the transposon donor and the target plasmid. This plasmid contains the pBR322 tetracycline resistance gene (without promoter) framed by two Mos1 ITRs. This reconstitutes a pseudo-Mos1 element named 3T3. We took advantage of the fact that the cat gene (present in the pBC backbone) is a hotspot for Mos1 integration. […] Transposition events were recovered by bacterial transformation with selection for tetracycline resistance, as a gain-of-function landmark for transposition. […] Controls correspond to assays performed without molecule but with DMSO, which is routinely used as the solvent. […] To confirm the efficiency of the six molecules, they were similarly assayed at 10 µM ( figure 6B ). Since they appeared to be still active at 10 µM, they were further characterized in order to identify the targeted step of the transposition cycle.

Mos1 transposase (MOS1) [6] = molecular target: T3, Mos1 transposase (MOS1); assay: MOS1 in vitro excision assay; assay type: biochemical, D. mauritiana
Experimental: as §2
The ability of the selected molecules to inhibit excision was tested in vitro using the pBC-3T3 plasmid as the transposon donor. MOS1 triggers the excision of the pseudo-Mos1 from the plasmid producing two linear DNA fragments, the transposon and the plasmid backbone, together with intermediate products (open circle plasmids which contained single strand nicks and linear plasmids which contained a double strand nick at one ITR). After excision, the transposon could be reintegrated, making it difficult to detect in electrophoresis. The activity of the molecules was measured by quantifying the plasmid backbone, the end product of the reaction. The assays were performed with final concentrations of 25 and 10 µM molecules. Controls correspond to assays performed without molecule but with DMSO. […] Reactions were performed at least twice for each selected molecules (leachianol G, leachianol F, quadrangularin A, hopeaphenol, vitisin B and pallidol) and the excision activity is reported in figure 7B . […] The six selected molecules were then tested for the integration step of Mos1 transposition.

topoisomerase II = test system: topoisomerase II; set-up: method as in PMID 16508191; details: cited from earlier work

T3 sequence (Q7JQ07 whole entry): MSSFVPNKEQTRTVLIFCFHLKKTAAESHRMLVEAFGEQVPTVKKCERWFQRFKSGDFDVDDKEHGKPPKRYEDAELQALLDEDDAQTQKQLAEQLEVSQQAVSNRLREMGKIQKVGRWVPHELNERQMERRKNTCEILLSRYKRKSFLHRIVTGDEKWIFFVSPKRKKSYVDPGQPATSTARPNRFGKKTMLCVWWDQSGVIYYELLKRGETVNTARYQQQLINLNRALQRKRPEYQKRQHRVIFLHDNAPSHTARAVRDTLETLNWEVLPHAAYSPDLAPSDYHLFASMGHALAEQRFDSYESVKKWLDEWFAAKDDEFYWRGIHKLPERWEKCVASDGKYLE
T1 sequence (Q7JQ07 whole entry): as above

| SMILES | integration inhibition evaluated by GFP fluorescence [1] | 1LTR circles amount [2] | 2LTR circles DNA [2] | integrated DNA amount [2] | total viral DNA amount [2] | activity on MOS1 (MOS1) | differential effect between reactions: strand transfer / processed donor versus 3′processing / unprocessed donor (HIV-1 IN [3]) | inhibitory efficiency compared with raltegravir (HIV-1 IN [3]) | inhibition of concerted integration from processed and unprocessed donor (HIV-1 IN [3]) | inhibitory effect on 3′processing (HIV-1 IN [4]) | activity against MOS1 in transposition assay (Mos1 transposase (MOS1) [5]; 10 µM) | inhibition of the whole MOS1 transposition activity (Mos1 transposase (MOS1) [5]; 25 µM, DMSO control as reference) | inhibition at 25 µM (Mos1 transposase (MOS1) [6]; 25 µM, DMSO control as reference, read-out: inhibition of in vitro excision reaction) [%] | IC50 (Mos1 transposase (MOS1) [6]; concentration range, sigmoid dose-response fit) [µM] | topoisomerase II inhibition (topoisomerase II) | inhibition of concerted integration (HIV-1 IN [3]; 50 µM, both activities (processed and unprocessed donor)) |
| --- | --- | --- | --- | --- | --- | --- | --- | --- | --- | --- | --- | --- | --- | --- | --- | --- |
| COc1cc(/C=C/c2ccc(O)cc2)cc(OC)c1 [E-pterostilbene] | found to induce an integration inhibition | no decrease | non significant increase | slight but reproducible decrease | No significant change | not active | more active on strand transfer reaction than | inhibitory efficiencies close to raltegravir | inhibited both activities |  |  |  |  |  |  |  |
| Oc1ccc(C(O)C2c3cc(O)cc(O)c3[C@H](c3ccc(O)cc3)[C@H]2c2cc(O)cc(O)c2)cc1 (some centres unmarked) [leachianol F] |  |  |  |  |  | also active against MOS1 activities | active on both reactions | inhibitory efficiencies close to raltegravir | inhibited both activities | showed an inhibitory effect | still active | over 50% | > 50 | 30 | potent topoisomerase II inhibitors | 30–60% |
